Converted amounts (≈) assume the structure as drawn.
How the values were obtained:
[1] = Solubility of cinnarizine in SNEDDSs, excipients and buffer (excess drug, end-over-end rotation, HPLC); format: physicochemical
Description: An excess of cinnarizine was added to the SNEDDSs, selected excipients (sesame oil and oleic acid) and 100 mM TRIS maleate buffer, pH 6.5. The resulting suspensions were placed in an end-over-end rotating device protected from light at 25 °C for the SNEDDSs and at 37 °C for the excipients and buffer; the temperatures were selected for storage purpose and for its physiological relevance, respectively. Samples were withdrawn at specified time points, i.e., 28, 50, and 72 h for the SNEDDSs, 22 h and 48 h for the excipients, and at 51 h and 75 h for the buffer. Samples were centrifuged at 15,000 rpm for 45 min (Biofuge 15, Hereaus-Sepatech, Oterode, Germany). Between two and three drops of supernatant were weighed in a 10 mL volumetric flask and diluted with ethanol. This solution was further diluted with mobile phase to an appropriate concentration. Samples from the buffer were diluted with mobile phase. Quantification of cinnarizine was performed as described in the analytical section. The determination of solubility was considered attained when samples from two consecutive time points varied by less than 5%. The solubilities were determined in triplicate.
(§1) The concentration of cinnarizine was determined using a HPLC method. A HPLC system (Hitachi, Merck, Darmstadt, Germany) equipped with a D-7000 interface, an L-7200 autosampler, a L-7100 pump, a L-7300 column oven (35 °C), and a L-7400 UV detector or a L-7480 fluorescence detector. Data was processed by using HPLC System Manager Version 4.0 from Merck (Darmstadt, Germany). Chromatographic separation was obtained using a Luna C18 150 × 4.6 mm, 5 µm, column and a C18 guard column (Phenomenex, Torrance, CA, USA). The mobile phase consisted of 50% (v/v) acetonitrile and 50% (v/v) 20 mM ammonium dihydrogen phosphate monobasic buffer, pH 4.5. The temperature of the column was maintained at 35 °C and the flow rate and injection volume were 1 mL/min and 25 µL, respectively. The UV detection was carried out at 253 nm and quantification was performed from peak areas using a six point linear standard curve ranging from 0.25–4 µg/mL.

[2] = Colloidal dispersion of SNEDDSs in FaSSGF pH 1.6 (USP II apparatus); format: physicochemical; conditions: FaSSGF pH 1.6, 37 °C, during the experiment (60 min), all four SNEDDSs
Description: as §1
Colloidal dispersion studies were performed in 250 mL fasted-state, simulated gastric fluid (FaSSGF) at pH 1.6. […] A quantity of 1 g of each SNEDDS containing 25 mg cinnarizine was weighed on a watch glass, and the glass with formulation was gently slid down the vessel wall to the bottom of the dissolution vessel and thereby introduced into the dispersion medium. […]

[3] = log POct/W; cited from earlier work
[4] = cited from earlier work
[5] = cited from earlier work; remark: listed apart in the source
[6] = parameters: method as in PMID 7616366; conditions: dogs, n = 4, mean ± SEM; cited from earlier work

Row | Structure (SMILES) | solubility ([1]; 100 mM TRIS maleate buffer pH 6.5, 37 °C, n = 3, read-out: Aqueous solubility (37 °C)) [µg/mL] | Cinnarizine solubility in SNEDDS I ([1]; in SNEDDS I preconcentrate, 25 °C, mean ± SD (n = 3)) [mg/g] | Cinnarizine solubility in SNEDDS II ([1]; in SNEDDS II preconcentrate, 25 °C, mean ± SD (n = 3)) [mg/g] | Cinnarizine solubility in SNEDDS III ([1]; in SNEDDS III preconcentrate, 25 °C, mean ± SD (n = 3)) [mg/g] | Cinnarizine solubility in SNEDDS IV ([1]; in SNEDDS IV preconcentrate, 25 °C, mean ± SD (n = 3)) [mg/g] | Cinnarizine solubility in oleic acid ([1]; in oleic acid, 37 °C, mean ± SD (n = 3)) [mg/g] | Cinnarizine solubility in sesame oil ([1]; in sesame oil, 37 °C, mean ± SD (n = 3)) [mg/g] | Precipitation of cinnarizine during colloidal dispersion [2] | Log P [3] | pKa [4] | Cinnarizine solubility in oleic acid (previous study) ([5]; in oleic acid, 25 °C) [mg/g] | Solubility of cinnarizine in water at low pH ([5]; pH 1.3) [µg/mL] | Bioavailability from a conventional capsule [6] | Bioavailability from an aqueous suspension formulation [6] | pKa in water ([4]; in water) | apparent pKa in mixed bile acid/phospholipid micelles ([4]; incorporated into mixed bile acid/phospholipid micelles)
1 | C(=C\c1ccccc1)/CN1CCN(C(c2ccccc2)c2ccccc2)CC1 [Cinnarizine, cinnarizine] | 0.39 ± 0.1 (≈ 1.06 µM) | 67.4 ± 0.9 | 58.8 ± 0.5 | 36.4 ± 0.7 | 28.3 ± 0.8 | 335 ± 3 | 25.7 ± 0.4 | not observed | 5.77 [16] | 1.95 [18] | 237 | 853 | 0.8% ± 0.4% | 8% ± 4% | – | –
2 | CCCCCCCC/C=C\CCCCCCCC(=O)O [oleic acid] | – | – | – | – | – | – | – | – | – | – | – | – | – | – | 9.85 | 6.5
